1 compound from paper PMC10067601, “Identification of a peptide ligand for human ALDH3A1 through peptide phage display: Prediction and characterization of protein interaction sites and inhibition of ALDH3A1 enzymatic activity” (Frontiers in Molecular Biosciences, 2023) can be followed below.

The target of the test is T1, human recombinant ALDH3A1 (Homo sapiens, UniProt P30838).
T1 construct: 6xHis (C); made in house; host or cells: E. coli, with chaperone co-expression (pG-KJE8 plasmid)
T1 sequence (P30838 1-453): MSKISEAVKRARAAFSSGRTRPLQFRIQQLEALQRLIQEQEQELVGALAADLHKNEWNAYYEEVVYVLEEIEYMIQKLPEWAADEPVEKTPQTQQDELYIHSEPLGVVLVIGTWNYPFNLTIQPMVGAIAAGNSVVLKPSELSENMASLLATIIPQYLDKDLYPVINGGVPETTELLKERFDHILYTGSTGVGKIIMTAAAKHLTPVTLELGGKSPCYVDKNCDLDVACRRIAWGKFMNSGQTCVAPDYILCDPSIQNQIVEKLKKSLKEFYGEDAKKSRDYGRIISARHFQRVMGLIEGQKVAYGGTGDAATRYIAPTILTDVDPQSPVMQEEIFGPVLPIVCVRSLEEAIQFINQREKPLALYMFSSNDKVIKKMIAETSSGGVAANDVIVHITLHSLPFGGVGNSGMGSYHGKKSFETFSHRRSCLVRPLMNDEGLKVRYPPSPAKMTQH
As to the kind of experiment: ALDH3A1 enzymatic assay, benzaldehyde oxidation. Format: biochemical. To be noted: for Enzymatic activity, % of control (Mean%): 40 μM CB29; for Enzymatic activity, % of control (Mean%) / Enzymatic Activity, AVERAGE of triplicates: mean of n = 3. The method, then:
The ability of ALDH3A1 to oxidize benzaldehyde in the presence of P1 was estimated by monitoring the production of NADH as described earlier with minor modifications ([Voulgaridou et al., 2013]). Human recombinant ALDH3A1 was combined with P1 and diluted in Milli-Q water, at 1:1,000. The final reaction was placed in a 0.5 mL quartz cuvette containing 50 mM Tris-HCl pH 8.5, 50 mM 2-Mercaptoethanol, 1.5 mM […], 20 nM ALDH3A1, 20 μM P1, and 1 mM Benzaldehyde. The reaction was initiated by the addition of the benzaldehyde substrate and was monitored at 340 nm for 5 min using a spectrophotometer (Libra S22, Biochrom Ltd, Cambridge, United Kingdom). In the case of CB29, the final reaction contained 40 μM CB29. Enzymatic activity was calculated as dOD/dT∗molarextinctioncoeiffcient∗pathcorrection∗enzyme^′sconcentrationinfinalreaction where, dT = minutes, molar extinction coefficient = 6220 M^-1/cm, path correction = 1 cm.
All experiments were conducted in triplicates and presented as % of the control’s enzymatic activity. As a control, the final reaction contained the respective Milli-Q water volume without P1 or CB29.
At least three independent experiments were performed for each condition tested. The values are expressed as the mean ± standard deviation (SD). Statistical analysis was performed with Graph Pad Prism software (version 9.4.1) (Graph Pad Inc., La Jolla, CA, United States). For all assays, statistical differences between groups were evaluated either by Student’s t-test or ANOVA, for multiple comparisons, followed by Dunnett’s or Tukey’s test. A level of p < 0.01 was considered statistically significant.

Setting [1] is: 20 μM P1 (n = 4) or 40 μM CB29 (n = 3).

Turning to `CC(=O)Nc1ccc(Nc2ccc(S(C)(=O)=O)cc2[N+](=O)[O-])cc1` [CB29, reference compound], the “Enzymatic activity, % of control, AVERAGE of experiments” value (20 μM P1 (4 experiments) or 40 μM CB29 (3 experiments), 1 mM benzaldehyde, 20 nM ALDH3A1, pH 8.5, 340 nm, 5 min) came to 52.9548%. Under setting [1], the “25% Percentile, % of control activity” value stood at 47.24; the “75% Percentile, % of control activity” value is on record as 56.68; the “Lower 95% CI of mean, % of control activity” value worked out at 40.48; the “Maximum, % of control activity” value was determined as 56.68. Moreover, under setting [1], the “Mean, % of control activity” value was 52.95; the “Median, % of control activity” value was found to be 54.95; the “Minimum, % of control activity” value is 47.24; the “Upper 95% CI of mean, % of control activity” value came out at 65.43. The “Enzymatic activity, % of control (Mean%)” value (CB29 Exp1, 1 mM benzaldehyde, 20 nM ALDH3A1, pH 8.5, 340 nm) turned out to be 56.6779%. For the same compound, the “Enzymatic activity, % of control (Mean%)” value (CB29 Exp2, 1 mM benzaldehyde, 20 nM ALDH3A1, pH 8.5, 340 nm) amounted to 54.9455%. The “Enzymatic activity, % of control (Mean%)” value (CB29 Exp3, 1 mM benzaldehyde, 20 nM ALDH3A1, pH 8.5, 340 nm) is reported as 47.241%. Further, the “Enzymatic Activity, AVERAGE of triplicates” value (“Enzymatic Activity, AVERAGE” for short) (CB29 Exp1, 40 μM) was 7.722 µmol/min/mg. Under “CB29 Exp2, 40 μM”, the “Enzymatic Activity, AVERAGE” value is 6.9085 µmol/min/mg. The “Enzymatic Activity, AVERAGE” value (CB29 Exp3, 40 μM) was determined as 7.406 µmol/min/mg. Besides, under “Dunnett's multiple comparisons, 20 μM P1 or 40 μM CB29”, the “95,00% CI of diff, control vs. compound” value was 37,23 to 56,86. The “Mean Diff, control vs. compound” value (Dunnett's multiple comparisons, 20 μM P1 or 40 μM CB29, % of control activity) is recorded as 47.05.
